Measurements: patent US12509465B2, “Benzoimidazole derivatives as anticancer agents” (CENTRE LEON BERARD, priority 2016, dated 2025)

Assays:
[1] = molecular target: Myd88-ERK2 (Homo sapiens (Human), UniProt P28482); assay: HTRF assay of MyD88-ERK2 interaction; type: binding; conditions: GST-ERK2 50 nM, biotin-MyD88pep 50 nM; read-out: IC50* (μM) on Myd88-ERK2 in HRTF Assay
Excerpt: (§1) [drawing 67] 2-(4-dimethylamino-phenyl)-1H-benzoimidazole-5-carboxylic acid (3-chloro-phenyl)-amide was synthesized from 2-(4-dimethylamino-phenyl)-1H-benzoimidazole-5-carboxylic acid and 3-chloro-phenylamine by following the procedure for example 1. ^1H NMR (400 MHz, DMSO-d6) δ 12.90 (s, 1H), 10.37 (s, 1H), 8.17 (s, 1H), 8.08-7.98 (m, 3H), 7.82-7.73 (m, 2H), 7.61 (d, J=8.3 Hz, 1H), 7.39 (t, J=8.1 Hz, 1H), 7.15 (ddd, J=8.0, 2.1, 0.9 Hz, 1H), 6.91-6.81 (m, 2H), 3.02 (s, 6H). MS m/z (M+H) 390.9. 2/Biological Activity 2-1/In Vitro Determination of Compound Activity by HRTF Assay Principle: In the experiment, recombinant Erk1 and Erk2, tagged with a polyhistidine stretch in their N-terminal part were used. To reproduce the interaction between ERK1/2 and Myd88, a peptide corresponding to amino acids 24-40 of Myd88 was used: biotin-Ahx-[…] with Ahx being aminohexanoic acid as a spacer (biotin-MyD88peptide). This peptide encompassed the interaction motif of Myd88 with the CD domain of ERK1/2. To perform the HTRF assay this peptide was N-terminally labelled with biotin. To detect the interaction between the peptide and Erk1 or Erk2 the following components were used: an antibody directed against the His-tag, labelled with the donor fluorophore (Europium cryptate); The streptavidine protein, labelled with the acceptor XL665 fluorophore directed against the biotin. All the components except Erk1, Erk2 and the peptide were purchased from Cisbio (Condolet, France).
(§2) Homogeneous Time Resolved Fluorescence (HTRF) assay combines two techniques: Fluorescence Resonance Energy Transfer (FRET) and Time Resolved (TR) measurement. In TR-FRET, a transfer of fluorescence between a donor and an acceptor molecule generates a signal that can then be measured. This energy transfer is only possible when both fluorophores are close enough to each other. Therefore, this method can be used to detect protein-protein interaction.
For MyD88-ERK2 interaction the reaction medium contained: GST-ERK2 at 50 nM, biotin-MyD88pep at 50 nM, anti-GST-Cryptate antibody at 0.8 nM and XL665 labeled-Streptavidine at 12.5 nM.
(§3) Concentrations of compounds to be tested ranged from 0.1 μM to 100 μM. Stock solutions of compounds according to the invention were prepared at 10 mM in DMSO. […] The plate was incubated at room temperature for 2 hours and fluorescence was measured using a TECAN Infinite F500 Reader®.
(§4) Results are calculated as the variation of fluorescence (Delta F) between control and samples. Delta F was calculated using the following equation: [(Ratio sample-Ratio of the arithmetic mean of the control)/Ratio of the arithmetic mean of the control]×100 where ratio=(Acceptor fluorescence/Donor fluorescence)×10000. […]

[2] = molecular target: Myd88-ERK1 (Homo sapiens (Human), UniProt P27361); assay: HTRF assay of MyD88-ERK1 interaction; type: binding; conditions: 6xHis-ERK1 7.5 nM, biotin-MyD88peptide 25 nM; read-out: IC50* (μM) on Myd88-ERK1 in HRTF Assay
Excerpt: as §1, §2
For MyD88-ERK1 interaction the reaction medium contained: 6xHis-ERK1 at 7.5 nM, biotin-MyD88peptide at 25 nM, anti-Histidine-Cryptate antibody at 1.3325 nM and XL665 labeled-Streptavidine at 3.125 nM.
as §3, §4

[3] = system: ERK1/2; assay: Cell-based assay, SRE luciferase reporter in HCT116 p53+/+ cells; conditions: Homo sapiens, HCT-116, 2 hours pretreatment, 10% FCS stimulation
Excerpt: The terms “SRE promoter” refer to “Serum response elements”, which is a DNA sequence (CC(A/T)6GG) that is used upstream of reporter genes and is known to be the binding site of the SRF (Serum response factor) proteins encoded by SRF gene identified by Gene Bank number (Gene ID: 6722, NM_003131.2). To determine the activity of the compounds on ERK1/2, Human Colon Tumor (HCT116) p53+/+ cell line stably transformed to express the luciferase reporter gene under the control of the serum response element (SRE) was used. This cell line was cultured in McCoy's medium supplemented with 10% FBS, 2 mM glutamine, 1% antibiotics and 1 μM of puromycin.
HCT116 p53+/+ SRE luciferase cells were plated in 96-well flat-bottom plate at 20,000/well and incubated at 37° C. for 36 hours. The medium was discarded and replaced by 100 μl of serum free medium for 16 hours. Cells were then pretreated for 2 hours with the compounds according to the invention at various concentrations (from 0.001 μM to 80 μM). Cells were then stimulated by addition of 10% FCS and incubated at 37° C. for four additional hours and the expression of reporter gene was assessed using the One-Glo Luciferase reagent (Promega). Luminescence was quantified after 5 minutes in a TECAN infinite M200 Reader (Männedorf, Switzerland). The results are presented below at paragraph 2-5.

[4] = system: HCT116 cells; assay: Apoptosis assay (Caspase-Glo 3/7); type: cell-based, Human; conditions: HCT116 p53+/+ cells, 16 h treatment, DMSO treated cells as control
Protocol: Cellular apoptosis was measured using the Caspase-Glo® 3/7 assay kit (Promega). To perform this study, HCT116 p53+/+ cells were seeded at a density of 7,000 cell/well in 96-half wells plate and maintained 24 h at 37° C. in McCoy's medium supplemented with 2 mM glutamine, 1% penicillin, 1% of streptomycin and 10% FBS. Cells were then treated with the compounds at various concentrations ranging from 1 μM to 100 μM depending on the compound. The DMSO concentration was normalized at 1% in each well and the cells were incubated for 16 h. Caspase 3/7 activity was monitored using caspase-Glo 3/7 kit according to the manufacturer instructions. Briefly, 50 μL of Caspase-Glo® 3/7 reagent was added in each well and the plates were gently agitated for 30 s and let at room temperature for an additional hour. Luminescence was then measured in a TECAN infinite 200 microplate reader. Results are expressed as the fold induction of caspase 3/7 activation using DMSO treated cells as control. The results are presented on FIGS. 1 to 3.

Myd88-ERK1, sequence (P27361 whole entry): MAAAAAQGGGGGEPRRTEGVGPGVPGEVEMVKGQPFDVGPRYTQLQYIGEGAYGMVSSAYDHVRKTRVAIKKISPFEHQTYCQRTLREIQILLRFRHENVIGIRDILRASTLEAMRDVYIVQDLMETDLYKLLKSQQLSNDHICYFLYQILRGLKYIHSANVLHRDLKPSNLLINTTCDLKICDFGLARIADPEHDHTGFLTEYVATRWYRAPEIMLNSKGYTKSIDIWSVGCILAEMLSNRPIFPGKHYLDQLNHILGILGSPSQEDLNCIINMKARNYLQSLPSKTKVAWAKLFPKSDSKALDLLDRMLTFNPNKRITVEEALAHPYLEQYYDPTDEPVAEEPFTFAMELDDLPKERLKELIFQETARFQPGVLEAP
Myd88-ERK2, sequence (P28482 whole entry): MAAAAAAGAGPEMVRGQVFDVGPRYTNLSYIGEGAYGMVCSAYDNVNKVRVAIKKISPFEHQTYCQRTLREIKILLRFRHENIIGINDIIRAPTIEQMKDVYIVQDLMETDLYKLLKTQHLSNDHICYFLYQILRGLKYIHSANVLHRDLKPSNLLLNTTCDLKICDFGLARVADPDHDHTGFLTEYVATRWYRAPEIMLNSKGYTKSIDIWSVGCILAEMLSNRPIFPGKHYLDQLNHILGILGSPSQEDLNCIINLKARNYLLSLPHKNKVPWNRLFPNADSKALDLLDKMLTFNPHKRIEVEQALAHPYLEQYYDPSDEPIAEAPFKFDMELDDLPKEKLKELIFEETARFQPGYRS

Row | IC50 [1] | IC50 [2] | IC50 [3] | Structure (SMILES) | induction of apoptosis (fold induction of caspase 3/7 activity) [4]
1 | > 50 µM | > 50 µM | > 50 µM | CN(C)c1ccc(-c2nc3cc(NC(=O)c4ccccc4)ccc3[nH]2)cc1 [Comp. ex., reference compound] | –
2 | 11.8 µM | 8 µM | 0.32 µM | CN(C)c1ccc(-c2nc3cc(C(=O)Nc4ccncc4)ccc3[nH]2)cc1 [Compound 2, 2-(4-Dimethylamino-phenyl)-1H-benzoimidazole-5-carboxylic acid pyridin-4-ylamide] | induction of apoptosis
3 | 2.34 µM | 4.44 µM | 0.48 µM | COc1ccc(NC(=O)c2ccc3[nH]c(-c4ccc(N(C)C)cc4)nc3c2)cn1 [Compound 6, 2-(4-Dimethylamino-phenyl)-1H-benzoimidazole-5-carboxylic acid (6-methoxy-pyridin-3-yl)-amide] | induction of apoptosis
4 | 25.5 µM | 6.15 µM | 0.79 µM | CCc1ccc(NC(=O)c2ccc3[nH]c(-c4ccc(N(C)C)cc4)nc3c2)cn1 [Compound 7, 2-(4-Dimethylamino-phenyl)-1H-benzoimidazole-5-carboxylic acid (6-ethylpyridin-3-yl)-amide] | induction of apoptosis
